Compared with `CCSCc1ccc(C(=O)c2ccc(Cl)cc2)cc1`, `CC(=Cc1ccc(Cl)cc1Cl)c1ccc(Cl)cc1` is higher in melting point: 33 to 34 °C for the first, 84 to 85 °C for the second.

First: COC(C)=CC(=O)NC1CCCC1
Second: CC(C)(C)OC(=O)N1[C@@H](CC2CCCCC2)[C@H](c2ccco2)OC1(C)C
The melting point of the first is higher: 94 °C for the first, 52 to 56 °C for the second.

First: CN(CCc1c[nH]c2ccc(NC(N)=O)cc12)C(=O)C(F)(F)F
Second: O=C(N[C@@H](Cc1c[nH]c2ccccc12)C(=O)O)C(CS)C(F)(F)F (some centres undefined)
The melting point of the first is higher: 193 to 194 °C for the first, 144 to 147 °C for the second.

First: O=C(O)CCc1c(C(=O)O)[nH]c2cc(I)ccc12
Second: O=C(O)CCc1ccc2c(c1)OCO2
The melting point of the first is higher: 230 to 232 °C for the first, 86.1 to 88.3 °C for the second.

First: O=C(Nc1ccc(Cl)nc1Cl)c1ccccc1O
Second: Cc1ccc(O)c(C(=O)OCC=Cc2ccccc2)c1
The melting point of the first is higher: 179 to 186 °C for the first, 178 to 179 °C for the second.

Compared with `O=C(O)CNC(=O)c1nc2ccc(NCCCN3CCC(OC(c4ccccc4)c4ccccc4)CC3)nn2n1`, `Cc1cnc(NC(=O)C(c2ccccc2)c2ccccc2)o1` is lower in melting point: 256 to 258 °C for the first, 166 to 168 °C for the second.

Compared with `Cc1ccc2c(c1C)C(=O)C(=O)N2`, `CCN1C2=C(CSC2)C(=O)Nc2ccccc21` is lower in melting point: 225 to 226 °C for the first, 195 to 197 °C for the second.

First: CCCOCCOc1cccc(-c2ccc3c(c2)C=C(C(=O)Nc2ccc(CN(C)C4CCOCC4)cc2)CCS3(=O)=O)c1
Second: CCN1CCN(Cc2ccc(C(=O)Nc3ccc(C)c(Nc4nccc(-c5cccnc5)n4)c3)cc2)CC1
The melting point of the first is lower: 166 to 167 °C for the first, 210 °C for the second.

Compared with `CC(C)C[C@H](NC(=O)c1ccccc1Cl)C(=O)N[C@@H](C(C)C)[C@@H](O)c1c(-c2ccccc2)c1=O`, `CC(C)[C@H](NC(=O)N(C)Cc1ccccn1)C(=O)N[C@@H](Cc1ccccc1)C[C@H](O)[C@H](Cc1ccccc1)NC(=O)OCc1cccnc1` is lower in melting point: 99 to 104 °C for the first, 58 to 61 °C for the second.

First: CC12CCCc3cc(NC(=O)c4ccc(C(=O)O)cn4)cc(c31)CCC2
Second: O=C(O)c1ccc2c(c1)Sc1ccc(Cl)cc1C2
The melting point of the first is lower: 212 to 213 °C for the first, 294 to 295 °C for the second.

First: CSc1nc(C)c(Cc2ccc(Cl)cc2)c(=O)[nH]1
Second: Cc1cc(-c2ccc(Cl)cc2)cn2c(C(=O)O)cnc12
The melting point of the first is higher: 248 to 251 °C for the first, 228 °C for the second.

First: COc1ccccc1OCCOS(C)(=O)=O
Second: CCCCC#CCCOc1ccc(C=O)cc1OC
The melting point of the first is higher: 73 to 76 °C for the first, 64.5 to 65.5 °C for the second.

First: CCOC(=O)c1cc2c(C(F)(F)F)cc(CO)cc2n1C
Second: CCC(=O)Nc1c(C#N)cnn1-c1ccc(OC(F)(F)F)cc1Cl
The melting point of the first is higher: 158 to 159 °C for the first, 127 °C for the second.

First: Nc1c(-c2nc(-c3ccco3)n[nH]2)nnn1Cc1ccc(F)cc1
Second: OCc1ccc(-c2ccc3nnn(Cc4ccc(F)cc4)c3n2)cc1
The melting point of the first is lower: 200 to 202 °C for the first, 210 to 213 °C for the second.

First: CCS(=O)(=O)N(C)c1c(Cl)c(Cl)cc2[nH]c(=O)c(=O)[nH]c12
Second: CS(=O)(=O)c1cnc2c(c1)CCC(c1ccc(Cl)c(Cl)c1)O2 (centres undefined)
The melting point of the first is higher: > 300 °C for the first, 172 °C for the second.

First: CCCn1nc(-c2c(-c3ccc(F)cc3)nn3ccc(OC)cc23)ccc1=O
Second: C[Si](Cn1ncnc1I)(c1ccc(F)cc1)c1ccc(F)cc1
The melting point of the first is higher: 190 to 191 °C for the first, 102 to 104 °C for the second.

First: CCCCCCCCCCCCCCOc1cccc(C(=O)N(Cc2ccccn2)C(C)=O)c1
Second: CCOC(=O)CN(CC(=O)OCC)C(=O)c1cc(OCCCCCCOc2ccc(-c3ccccc3)cc2)ccc1OCc1ccccc1
The melting point of the first is higher: 66 to 67 °C for the first, 60 to 62 °C for the second.

First: CCc1c(C(=O)NCCCCCCC(=NOCCN)c2ccc(C(F)(F)F)cc2)nc(-c2ccccc2Cl)n1-c1ccc(Cl)cc1
Second: O=C(NCCCCCCCCc1ccccc1)c1cc(-c2cccc(C(F)(F)F)c2)c(OCCO)c(-c2cccc(C(F)(F)F)c2)c1
The melting point of the first is lower: 90 to 95 °C for the first, 143 to 145 °C for the second.

Compared with `COC(=O)[C@@H]1C[C@H](C(=O)O)Nc2cc(C)cc(C)c21` (relative stereo), `COCc1cnc(C(=O)O)c(C(=O)O)c1` is lower in melting point: 173 °C for the first, 161 to 162 °C for the second.

First: O=C1NCC(c2ccccc2)SCC1N1C(=O)c2ccccc2C1=O (centres undefined)
Second: NC1=C2C(=Nc3ccccc3S2(=O)=O)c2ccccc2C1=O
The melting point of the first is lower: 240 to 247 °C for the first, 264 to 266 °C for the second.

First: O=C(/C=C/c1cccc(S(=O)(=O)N2CCN(Cc3ccccc3)CC2)c1)NO
Second: O=C(CN1CCC(Cc2ccccc2)CC1)Nc1ccc2[nH]c(=O)oc2c1
The melting point of the first is lower: 185 °C for the first, 210 to 212 °C for the second.

Compared with `CC(C)CCS(=O)(=O)NC(=O)/C=C/c1cc(OC2CCOCC2)nn1Cc1ccc(C(F)(F)F)cc1Cl`, `O=C(Cl)N1CC(Oc2cccc(C(F)(F)F)c2)C1` is lower in melting point: 150 to 152 °C for the first, 72.5 to 74 °C for the second.

First: CCC(=S)NC[C@H]1CN(c2ccc(N3CCOCC3)c(F)c2)C(=O)O1
Second: O=[N+]([O-])c1ccc(-n2ccnc2SCc2ccccc2N2CCOCC2)nc1
The melting point of the first is lower: 138 to 139 °C for the first, 199 to 202 °C for the second.

First: O=C(NC1C(=O)N(CC2C3CC4CC(C3)CC2C4)c2ccccc2N(c2ccccc2)C1=O)Oc1ccccc1 (centres undefined)
Second: CC(=O)c1ccc(-n2c(-c3cc(-c4ccccc4)c(N4CCOCC4)s3)nc3ccccc3c2=O)cc1
The melting point of the first is lower: 167 to 168 °C for the first, > 275 °C for the second.

First: COc1cc(F)ccc1-c1c(/C=C/C(=O)O)c2ccccc2c(=O)n1C(C)C
Second: C#CCCCOc1ccc(/C=C/C(=O)Nc2ccccc2C(=O)O)cc1OC
The melting point of the first is higher: 265 to 267 °C for the first, 166 to 168 °C for the second.

First: Cn1cc(-c2cccc(N3Cc4cc(C(C)(C)C)ccc4C3=O)c2CO)cc(Nc2ccc(N3CCNCC3=O)cn2)c1=O
Second: CCCCC1=NC2(CCCC2)C(=O)N1Cc1ccc(-c2ccccc2S(=O)(=O)Nc2onc(C)c2C)c(CN2CCCC2=O)c1
The melting point of the first is higher: 218 to 220 °C for the first, 95 to 100 °C for the second.

First: COc1cc(OC)cc(C(Cc2ccc(OC)c(OC)c2)=NNS(=O)(=O)c2ccc(C)cc2)c1
Second: COc1ccc(OC)c(C=CC(=O)Nc2cnc3c(C)cc(C)cc3c2-c2ccccc2Cl)c1
The melting point of the first is lower: 132 to 133 °C for the first, 209 to 210 °C for the second.

First: Cc1cccc(C)c1NC(=O)CCCSc1cc(C(C)(C)C)c(O)c(C(C)(C)C)c1
Second: CC(C)(C(=O)O)c1cccc(OCc2ccccc2)c1
The melting point of the first is higher: 140 °C for the first, 114 to 116 °C for the second.

Compared with `COC(=O)C(O)C(F)(F)F` (centres undefined), `COc1nc(C(=O)O)c(C(=O)NC(C)(C)C)s1` is higher in melting point: 50 to 53 °C for the first, 105 to 110 °C for the second.

First: Cc1ccc(C(=O)Nc2cn(C3CCCCO3)nc2C(=O)NCC(F)(F)F)cn1 (centres undefined)
Second: CC(=O)Nc1cc(=O)cc2n1CCCCC2
The melting point of the first is lower: 132 to 133 °C for the first, > 230 °C for the second.

First: CCNC(=S)Nc1ccc2[nH]c3cnc(C(=O)OC(C)C)c(CC)c3c2c1
Second: CCOC(=O)CC(=O)Cn1nc(CC)c(Oc2cc(Cl)cc(Cl)c2)c1CC
The melting point of the first is higher: 234 to 236 °C for the first, 82 to 84 °C for the second.

First: O=C1NCCc2[nH]c3ccc(F)cc3c21
Second: COC(=O)Nc1cc(F)ccc1C(=O)O
The melting point of the first is higher: 242 to 245 °C for the first, 162 °C for the second.

Compared with `O=C1C(=Cc2ccncc2)COc2ccccc21`, `CS(=O)(=O)CCN1C(=O)CN=C(c2ccccc2)c2cc(Cl)ccc21` is higher in melting point: 132 °C for the first, 135 to 156 °C for the second.

First: CCCSc1nc(C)nc(S)c1[N+](=O)[O-]
Second: O=[N+]([O-])c1ccc(Br)c2nsnc12
The melting point of the first is lower: 162 to 164 °C for the first, 216 to 218 °C for the second.

First: N#Cc1cnc2cc(C#CCCCN3CCOCC3)ccc2c1Nc1ccc(Cl)cc1Cl
Second: COc1cc(C(=O)O)ccc1Cc1c(Cl)n(C)c2ccc(CC3CCN(C)C3=O)cc12 (centres undefined)
The melting point of the first is lower: 131 to 133 °C for the first, 204 to 205 °C for the second.

First: COc1ccc(N2C(=O)C(O[Si](C(C)C)(C(C)C)C(C)C)C2c2ccc(C(F)(F)F)cc2)cc1 (centres undefined)
Second: CC(F)(F)c1ccc(Oc2ccc(C3CCCN4CCS(=O)(=O)N=C34)cc2)cc1 (centres undefined)
The melting point of the first is lower: 132 to 133 °C for the first, 171 to 172 °C for the second.

First: COc1ncc(C2Nc3ccccc3C(=O)N2c2cccc(C(F)(F)F)c2)cc1Br (centres undefined)
Second: COc1ccc(OCc2cccc(OCc3ccc4ccccc4n3)c2)cc1
The melting point of the first is higher: 192 to 193 °C for the first, 83 to 85 °C for the second.

First: CN1CCN(c2ccc3cnn(C)c3n2)CC1
Second: Cc1cc(C)cc(-c2cnn3c(-c4cccc(-c5nnn(CCN6CCCC6)n5)c4)ccnc23)c1
The melting point of the first is higher: 106 to 107 °C for the first, 60 °C for the second.

First: CCN(CC)C(=O)c1ccc(/C=C(\C)c2ccc3c(c2)C(C)(C)CCC3(C)C)cc1
Second: CC(=NO)c1ccc(OCc2ccccc2)c(CCCc2ccc(C(=O)NCCO)cc2)c1
The melting point of the first is lower: 111 to 112 °C for the first, 131 to 132 °C for the second.

First: CC(C)N(CCn1c(-c2ccc(O)cc2)cc2c1CCCC2)C(C)C
Second: CCCCN(CCCC)CCCOc1ccc(S(=O)(=O)c2c(C3CCCCC3)cn3ccccc23)cc1
The melting point of the first is lower: 112 to 114 °C for the first, 130 to 131 °C for the second.

First: CC1(C)CCC(Cc2ccc(Cl)cc2)C1(O)CO (centres undefined)
Second: COc1ccccc1S(=O)(=O)N(C)c1cccc2cc(C3=NCC(CCO)S3)[nH]c12 (centres undefined)
The melting point of the first is lower: 103 to 104 °C for the first, 154 to 155 °C for the second.

First: O=C(Cl)c1cc2ccccc2oc1=O
Second: CCc1nc(-c2ncn3c4ccccc4c(=O)n(C)c23)no1
The melting point of the first is lower: 138 to 141 °C for the first, 199 to 202 °C for the second.

First: COc1c(Cc2ccccc2)ccc2ccccc12
Second: N=C(N)NCCCOc1ccc2cc(CC(=O)O)c(=O)n(Cc3ccccc3)c2c1
The melting point of the first is lower: 56 to 59 °C for the first, 132 to 134 °C for the second.

Compared with `CC12CCC(O)CC1CCC1C2CCC2(C)C(=O)CCC12O` (centres undefined), `COc1ccc(OC)c2c1CC(O)CC2O` (centres undefined) is lower in melting point: 214 to 217 °C for the first, 126 °C for the second.

Compared with `CC(=O)c1cccc(NC(=O)NCC(=O)N(CC(=O)N(C)c2ccccc2)c2ccccc2)c1`, `CCCc1c(O)cccc1Oc1ccccc1C#N` is lower in melting point: 170 °C for the first, 103 to 107 °C for the second.

First: O=C(c1ccc(F)cc1)N1CCC[C@H](c2nc(-c3ccc4ccccc4c3)no2)C1
Second: ON1CCC2(CC1)OC(c1ccccc1)c1ccccc12 (centres undefined)
The melting point of the first is lower: 142 to 143 °C for the first, 184 to 187 °C for the second.

First: COc1cc(C(C)=O)cc(N)c1OC
Second: COc1cc2ncnc(N3CCNCC3)c2cc1OC
The melting point of the first is lower: 63 to 65 °C for the first, 178 to 179 °C for the second.

First: CC(Oc1ccccc1[N+](=O)[O-])c1nnc(N)s1 (centres undefined)
Second: CC(C)N1CC(COc2cccc3c(=O)[nH]ccc23)OC1=O (centres undefined)
The melting point of the first is lower: 137 to 142 °C for the first, 215 to 216 °C for the second.

First: CCc1cc(C)cc(CC)c1C1C(=O)C2=CC(COCOC)CC2C1=O (centres undefined)
Second: CCCn1c(=O)c2c(Cl)cc(Cl)cc2n(Cc2ccccc2)c1=O
The melting point of the first is higher: 155 to 156 °C for the first, 111 to 115 °C for the second.

Molecule `CC(=O)n1nc(-c2cnccn2)nc1-c1cnccn1` has a melting point of 128 to 130 °C.

Reference: a melting point compilation (Tetko et al.; mined from patent text by program, amines drawn as free bases though some values may be those of a salt)
